This note sets out measurements from PubChem BioAssay AID1224915.

pEC50: −log10 of the molar value.

The experiment concerns MDA-MB-231 antiproliferation. As to the kind of experiment: PubChem AID 1224915.

A word on the pEC50: it is the negative decadic logarithm of the EC50, by convention in mol/L. On to `COc1cc(-c2nn(CCN3CCC(N(C)C)CC3)c3ncnc(N)c23)ccc1NC(=O)OC(C)(C)C`, for which the pEC50 is 8.05.
